From ChEMBL document CHEMBL1671858, “Coprevalence of plasmid-mediated quinolone resistance determinants QepA, Qnr, and AAC(6')-Ib-cr among 16S rRNA methylase RmtB-producing Escherichia coli isolates from pigs” (2008)
In brackets after ≈: the same amount, converted by molar mass.

Experiments:
Type in all cases: functional
Escherichia coli [1] = assay: Antimicrobial activity against Escherichia coli isolate GZ11 PFGE type E harboring qepA gene by agar dilution method
Escherichia coli [2] = assay: Antimicrobial activity against Escherichia coli isolate CQ12 transconjugant harboring 16S rRNA methylase RmtB and qepA, qnrS2, aac(6')-Ib-cr gene by agar dilution method relative to recipient strain
Escherichia coli [3] = assay: Antimicrobial activity against Escherichia coli isolate GZ8 transconjugant harboring 16S rRNA methylase RmtB and qepA by agar dilution method relative to recipient strain
Escherichia coli [4] = assay: Antimicrobial activity against Escherichia coli isolate GZ13 PFGE type F harboring qepA gene by agar dilution method
Escherichia coli [5] = assay: Antimicrobial activity against Escherichia coli isolate CQ15 PFGE type I1 harboring qepA gene by agar dilution method
Escherichia coli [6] = assay: Antimicrobial activity against Escherichia coli isolate CQ22 transconjugant harboring 16S rRNA methylase RmtB and qnrS1 by agar dilution method relative to recipient strain
Escherichia coli [7] = assay: Antimicrobial activity against Escherichia coli isolate CQ6 transconjugant harboring 16S rRNA methylase RmtB and qepA, qnrS2, aac(6')-Ib-cr gene by agar dilution method relative to recipient strain
Escherichia coli [8] = assay: Antimicrobial activity against Escherichia coli isolate GZ2 PFGE type O harboring qepA gene by agar dilution method
Escherichia coli [9] = assay: Antimicrobial activity against Escherichia coli isolate CQ7 transconjugant harboring 16S rRNA methylase RmtB and qepA, qnrS2, aac(6')-Ib-cr gene by agar dilution method relative to recipient strain
Escherichia coli [10] = assay: Antimicrobial activity against Escherichia coli isolate CQ7 PFGE type Q harboring qepA gene by agar dilution method
Escherichia coli [11] = assay: Antimicrobial activity against Escherichia coli isolate CQ10 transconjugant harboring 16S rRNA methylase RmtB and qepA by agar dilution method relative to recipient strain
Escherichia coli [12] = assay: Antimicrobial activity against Escherichia coli isolate GZ5 transconjugant harboring 16S rRNA methylase RmtB and qepA by agar dilution method relative to recipient strain
Escherichia coli [13] = assay: Antimicrobial activity against Escherichia coli isolate CQ26 transconjugant harboring 16S rRNA methylase RmtB and qepA by agar dilution method relative to recipient strain
Escherichia coli [14] = assay: Antimicrobial activity against Escherichia coli isolate CQ16 PFGE type Q harboring qepA gene by agar dilution method
Escherichia coli [15] = assay: Antimicrobial activity against Escherichia coli isolate CQ2 transconjugant harboring 16S rRNA methylase RmtB and qepA by agar dilution method relative to recipient strain
Escherichia coli [16] = assay: Antimicrobial activity against Escherichia coli isolate GZ14 PFGE type F harboring qepA gene by agar dilution method
Escherichia coli [17] = assay: Antimicrobial activity against Escherichia coli isolate CQ22 PFGE type P harboring qepA gene by agar dilution method
Escherichia coli [18] = assay: Antimicrobial activity against Escherichia coli isolate GZ11 transconjugant harboring 16S rRNA methylase RmtB and qepA by agar dilution method relative to recipient strain
Escherichia coli [19] = assay: Antimicrobial activity against Escherichia coli isolate GZ1 PFGE type O harboring qepA gene by agar dilution method
Escherichia coli [20] = assay: Antimicrobial activity against Escherichia coli isolate GZ4 PFGE type A2 harboring qepA gene by agar dilution method
Escherichia coli [21] = assay: Antimicrobial activity against Escherichia coli isolate CQ19 PFGE type S harboring qepA gene by agar dilution method
Escherichia coli [22] = assay: Antimicrobial activity against Escherichia coli isolate GZ7 transconjugant harboring 16S rRNA methylase RmtB and qepA and qnrS1 by agar dilution method relative to recipient strain
Escherichia coli [23] = assay: Antimicrobial activity against Escherichia coli isolate CQ14 PFGE type M harboring qepA gene by agar dilution method
Escherichia coli [24] = assay: Antimicrobial activity against Escherichia coli isolate GZ16 PFGE type H harboring qepA gene by agar dilution method
Escherichia coli [25] = assay: Antimicrobial activity against Escherichia coli isolate CQ18 transconjugant harboring 16S rRNA methylase RmtB and qepA by agar dilution method relative to recipient strain
Escherichia coli [26] = assay: Antimicrobial activity against Escherichia coli isolate GZ5 PFGE type B harboring qepA gene by agar dilution method
Escherichia coli [27] = assay: Antimicrobial activity against Escherichia coli isolate CQ10 PFGE type L harboring qepA gene by agar dilution method
Escherichia coli [28] = assay: Antimicrobial activity against Escherichia coli isolate GZ8 PFGE type C harboring qepA gene by agar dilution method
Escherichia coli [29] = assay: Antimicrobial activity against Escherichia coli isolate GZ3 transconjugant harboring 16S rRNA methylase RmtB and qepA by agar dilution method relative to recipient strain
Escherichia coli [30] = assay: Antimicrobial activity against Escherichia coli isolate GZ15 transconjugant harboring 16S rRNA methylase RmtB and qepA by agar dilution method relative to recipient strain
Escherichia coli [31] = assay: Antimicrobial activity against Escherichia coli isolate CQ4 PFGE type J1 harboring qepA gene by agar dilution method
Escherichia coli [32] = assay: Antimicrobial activity against Escherichia coli isolate CQ19 transconjugant harboring 16S rRNA methylase RmtB and qepA, aac(6')-Ib-cr gene by agar dilution method relative to recipient strain
Escherichia coli [33] = assay: Antimicrobial activity against Escherichia coli isolate GZ9 PFGE type D harboring qepA gene by agar dilution method
Escherichia coli [34] = assay: Antimicrobial activity against Escherichia coli isolate CQ20 PFGE type J1 harboring qepA gene by agar dilution method
Escherichia coli [35] = assay: Antimicrobial activity against Escherichia coli isolate CQ16 transconjugant harboring 16S rRNA methylase RmtB and qepA, qnrS2, aac(6')-Ib-cr gene by agar dilution method relative to recipient strain
Escherichia coli [36] = assay: Antimicrobial activity against Escherichia coli isolate GZ6 transconjugant harboring 16S rRNA methylase RmtB and qepA by agar dilution method relative to recipient strain
Escherichia coli [37] = assay: Antimicrobial activity against Escherichia coli isolate CQ18 PFGE type I2 harboring qepA gene by agar dilution method
Escherichia coli [38] = assay: Antimicrobial activity against Escherichia coli isolate CQ5 transconjugant harboring 16S rRNA methylase RmtB and qepA by agar dilution method relative to recipient strain
Escherichia coli [39] = assay: Antimicrobial activity against Escherichia coli isolate GZ3 PFGE type A1 harboring qepA gene by agar dilution method
Escherichia coli [40] = assay: Antimicrobial activity against Escherichia coli isolate GZ12 PFGE type F harboring qepA gene by agar dilution method
Escherichia coli [41] = assay: Antimicrobial activity against Escherichia coli isolate GZ9 transconjugant harboring 16S rRNA methylase RmtB and qepA by agar dilution method relative to recipient strain
Escherichia coli [42] = assay: Antimicrobial activity against Escherichia coli isolate CQ5 PFGE type I2 harboring qepA gene by agar dilution method
Escherichia coli [43] = assay: Antimicrobial activity against Escherichia coli isolate CQ6 PFGE type Q harboring qepA gene by agar dilution method
Escherichia coli [44] = assay: Antimicrobial activity against Escherichia coli isolate GZ12 transconjugant harboring 16S rRNA methylase RmtB and qepA by agar dilution method relative to recipient strain
Escherichia coli [45] = assay: Antimicrobial activity against Escherichia coli isolate GZ7 PFGE type N harboring qepA gene by agar dilution method
Escherichia coli [46] = assay: Antimicrobial activity against Escherichia coli isolate CQ1 transconjugant harboring 16S rRNA methylase RmtB and qnrB6 by agar dilution method relative to recipient strain
Escherichia coli [47] = assay: Antimicrobial activity against Escherichia coli isolate GZ6 PFGE type B harboring qepA gene by agar dilution method

## CCN1CCN(c2cc3c(cc2F)c(=O)c(C(=O)O)cn3C2CC2)CC1 [ENROFLOXACIN]
Escherichia coli [1]
  MIC: 128 µg/mL (≈ 356 µM)
Escherichia coli [2]
  fold change (FC): 4
Escherichia coli [3]
  fold change (FC): 16
Escherichia coli [4]
  MIC: 8 µg/mL (≈ 22.3 µM)
Escherichia coli [5]
  MIC: 2 µg/mL (≈ 5.56 µM)
Escherichia coli [6]
  fold change (FC): 2
Escherichia coli [7]
  fold change (FC): 2
Escherichia coli [8]
  MIC: 2 µg/mL (≈ 5.56 µM)
Escherichia coli [9]
  fold change (FC): 2
Escherichia coli [10]
  MIC: 2 µg/mL (≈ 5.56 µM)
Escherichia coli [11]
  fold change (FC): 2
Escherichia coli [12]
  fold change (FC): 8
Escherichia coli [13]
  fold change (FC): 2
Escherichia coli [14]
  MIC: 2 µg/mL (≈ 5.56 µM)
Escherichia coli [15]
  fold change (FC): 16
Escherichia coli [16]
  MIC: 16 µg/mL (≈ 44.5 µM)
Escherichia coli [17]
  MIC: 4 µg/mL (≈ 11.1 µM)
Escherichia coli [18]
  fold change (FC): 4
Escherichia coli [19]
  MIC: 4 µg/mL (≈ 11.1 µM)
Escherichia coli [20]
  MIC: 32 µg/mL (≈ 89 µM)
Escherichia coli [21]
  MIC: 2 µg/mL (≈ 5.56 µM)
Escherichia coli [22]
  fold change (FC): 1
Escherichia coli [23]
  MIC: 16 µg/mL (≈ 44.5 µM)
Escherichia coli [24]
  MIC: > 128 µg/mL
Escherichia coli [25]
  fold change (FC): 1
Escherichia coli [26]
  MIC: 16 µg/mL (≈ 44.5 µM)
Escherichia coli [27]
  MIC: 0.25 µg/mL (≈ 0.696 µM)
Escherichia coli [28]
  MIC: 64 µg/mL (≈ 178 µM)
Escherichia coli [29]
  fold change (FC): 4
Escherichia coli [30]
  fold change (FC): 8
Escherichia coli [31]
  MIC: 0.03 µg/mL (≈ 0.0835 µM)
Escherichia coli [32]
  fold change (FC): 4
Escherichia coli [33]
  MIC: 32 µg/mL (≈ 89 µM)
Escherichia coli [34]
  MIC: 0.03 µg/mL (≈ 0.0835 µM)
Escherichia coli [35]
  fold change (FC): 2
Escherichia coli [36]
  fold change (FC): 2
Escherichia coli [37]
  MIC: 2 µg/mL (≈ 5.56 µM)
Escherichia coli [38]
  fold change (FC): 2
Escherichia coli [39]
  MIC: 64 µg/mL (≈ 178 µM)
Escherichia coli [40]
  MIC: 16 µg/mL (≈ 44.5 µM)
Escherichia coli [41]
  fold change (FC): 2
Escherichia coli [42]
  MIC: 4 µg/mL (≈ 11.1 µM)
Escherichia coli [43]
  MIC: 2 µg/mL (≈ 5.56 µM)
Escherichia coli [44]
  fold change (FC): 4
Escherichia coli [45]
  MIC: 32 µg/mL (≈ 89 µM)
Escherichia coli [46]
  fold change (FC): 1
Escherichia coli [47]
  MIC: 16 µg/mL (≈ 44.5 µM)
